In US20200069677A1, “MARKERS FOR PERSONALIZED CANCER TREATMENT WITH LSD1 INHIBITORS” (Constellation Pharmaceuticals, Inc., priority 2016, published 2020):

Experiments:
[1] = system: SET2 xenografts; assay: In vivo efficacy on SET2 tumor xenografts; conditions: Nude mice; 1.5, 5 and 15 mg/kg p.o. QD; 14 days of dosing
Method: FIG. 12 illustrates the in vivo efficacy of GSK2879552 on SET2 xenografts. […] Tumor-bearing animals were treated with 3 different dose levels of the KDM1A inhibitor: 1.5 mg/kg, 5 mg/kg, and 15 mg/kg administered orally (p.o.) on a daily schedule (QD). […] Top right panel indicates body weight changes determined in the treated mice.

[2] = target: T1, KDM1A/CoREST complex (Homo sapiens, UniProt O60341); assay: Anti-KDM1A immunoprecipitation and Western blot in HEL cells; format: cell-based; parameters: endogenous in cells; conditions: overnight at 1 μM
Method: For immunoprecipitation, 3 μg of anti-KDM1A antibody (Bethyl Labs, Montgomery, Tex.) or rabbit IgG (Cell Signaling, Danvers, Mass.) were added to 0.5 mg of reconstituted whole cell lysate and placed on a rotator at 4° C. overnight. To isolate the immune complexes, 50 μL of pre-washed Protein G magnetic beads (Dynabeads, Invitrogen) equilibrated in A+C buffer (1:1) were added and the samples were rotated for 4° C. for an additional 2 hours. Beads were captured using a magnetic stand (DynaMag, Invitrogen) and washed 3 times with buffer A+C. The beads were re-suspended in 25 μl 2×SDS loading buffer and resolved on 4-12% SDS-PAGE gels. Co-precipitated proteins were detected by western blotting using the indicated primary antibodies. […] Here, HEL cells were treated with the KDM1A inhibitor RN-1 overnight at 1 μM concentration. Cell lysates were prepared and an immunoprecipitation was carried out using an anti-KDM1A antibody and rabbit IgG as a control. SDS-PAGE and Western blotting was performed on the input material and immunoprecipitated material. Blot was probed with an anti-GFI1B, anti-KDM1A, and anti-vinculin antibodies. Bound antibodies were detected with goat anti-rabbit IgG antibody and goat anti-mouse IgG, conjugated with DyLight 800 AND DyLight 680, respectively.

[3] = target: T1, KDM1A/CoREST complex; assay: Anti-KDM1A immunoprecipitation and Western blot in SET2 cells; format: cell-based; parameters: endogenous in cells; host or cells: SET2 cells
Method: […] Cells were harvested, washed twice with cold PBS and resuspended in 5 volumes of Buffer A (10 mM Tris-HCL (pH 8.0), 1.5 mM MgCl2, 10 mM KCl, 0.5 mM DTT, supplemented with protease inhibitors). After 15 minutes on ice, cells were spun down at 1000×g for 15 minutes and the supernatant was removed as the cytosolic fraction. Pellets were resuspended in Buffer C (20 mM Tris-HCl, (pH 7.9), 25% glycerol, 0.42 M NaCl, 1.5 mM MgCl2, 0.2 mM EDTA, 0.5 mM DTT and protease inhibitors) and sonicated briefly (3 seconds, 40% output). After incubating on ice for 30 minutes, cells were spun at 20,000×g for 20 minutes to pellet the insoluble material. The supernatant was removed (soluble nuclear fraction) and combined with the cytosolic fraction to reconstitute a whole cell lysate with a final NaCl concentration of <200 mM. […] Co-precipitated proteins were detected by western blotting using the indicated primary antibodies. […] Bound antibodies were detected with goat anti-rabbit IgG antibody and goat anti-mouse IgG, conjugated with DyLight 800 AND DyLight 680, respectively. […]

SMILES	Growth of SET-2 tumor xenografts (tumor size) [1]	GFI1B association with the KDM1A/CoREST complex (co-immunoprecipitation) [2]	GFI1B association with the KDM1A/CoREST complex (co-immunoprecipitation) ([3]; SET2 cells, 1 μM RN-1 for 24 hours, vs DMSO)	CoREST retention in the KDM1A complex (co-immunoprecipitation) ([3]; SET-2 cells, overnight at 1 μM)
O=C(O)c1ccc(CN2CCC(CN[C@@H]3C[C@H]3c3ccccc3)CC2)cc1 [GSK2879552]	reduced the growth of SET-2 tumor xenografts			
CN1CCN(C(=O)CN[C@@H]2CC2c2ccc(OCc3ccccc3)cc2)CC1 (stereo partly shown) [RN-1]		displacement of GFI1B from the KDM1A/CoREST complex	displacement of GFI1B from the KDM1A/CoREST complex	CoREST is retained in the KDM1A complex
